{"source": "patent US8759405B2", "about": "“Stevia extract or steviol for hair care” (DSM IP Assets B.V., priority 2009, dated 2014)", "key": {"whole mouse skin": {"tested_on": "whole mouse skin", "assay": "Gene expression in whole mouse skin by quantitative RT-PCR after dietary supplementation", "type": "in vivo, mice", "settings": "eight weeks", "protocol": "The effect of steviol on gene expression was also analysed in whole mouse skin (also containing hair follicles). To this aim, mice were fed a normal diet or a diet supplemented with steviol (see also relevant data above). After eight weeks of supplementation, mice were sacrificed and skin was isolated and freed from hair. Quantitative RT-PCR was performed for selected genes using the same technology as described for hair follicles (see above). Remarkably, we identified changes in expression levels of some genes that are involved in skin physiology and homeostasis."}, "Human hair follicles [1]": {"tested_on": "Human hair follicles", "assay": "Gene expression in human hair follicles by DNA microarray analysis", "type": "cell-based", "protocol": "Human hair follicles were obtained from human skin fragments (obtained by plastic surgery) and grown in supplemented William's E medium supplemented with penicillin/streptomycin, L-glutamine (2 mM/L), insulin (10 μg/mL and hydrocortisone (8 nM/L). Hair follicle growth was assessed via length measurements (days 0, 4, and 7). Triiodothyronine (T3, 30 μM/L) was used as positive control. The effect of steviol (at 0.625-5 μg/mL) was tested in parallel. On day 7, RNA was extracted from hair follicles that had been subjected to different treatments (control, T3, steviol). RNA was processed for Affymetrix® DNA microarray analysis in order to identify effects of compounds on gene expression. Where appropriate, RNA expression levels were further quantified by RT-PCR using the ABI 7900 Taqman instrumentation. […] Global effects of steviol on gene expression were determined by transcriptomics i.e. DNA microarray analysis. The obtained data were processed with Genedata software tools. […] Thus another aspect of this invention is a method of up-regulating at least one of the genes listed in Table 3 comprising administering steviol and observing a hair growth effect."}, "aged C57B1/6J mice": {"tested_on": "aged C57B1/6J mice", "assay": "Chronic steviol treatment, subjective rating of fur and skin condition pre- and post-treatment", "type": "in vivo", "settings": "120 mg/kg/d in diet, 6 weeks, pre- vs post-treatment", "protocol": "FIG. 2 Effects of chronic steviol treatment (120 mg/kg, p.o., 6 weeks) on (a) fur colour and (b) hair loss in aged C57B1/6J mice. […] [table] Female, aged, C57B1/6J mice (22-24 months of age) were assessed for their fur quality at the start and end of a six-week study. Prior to commencement of treatment, photographs were taken of all mice whilst under light anaesthesia (2.2-2.4% isofluorane). Mice were then fed either placebo diet or diet supplemented with steviol (120 mg/kg/d) for six weeks. At the end of the six week treatment phase, mice were again anaesthetised and further photographs were taken. Eleven participants with extensive experience of performing experimental studies using mice were asked to complete the same questionnaire (see Table 1), to enable subjective rating of a number of parameters of fur quality and of the appearance of skin wounds, by assessing the photographs taken before and after treatment. Statistical analyses were performed using Prism 5 (GraphPad Software, La Jolla, Calif., USA) and comprised two-way ANOVA (test factors: Time and Treatment), followed by Bonferroni post-hoc tests, where appropriate."}, "Human hair follicles [2]": {"tested_on": "Human hair follicles", "assay": "Growth of human hair follicle (length measurements)", "type": "cell-based", "protocol": "(§1) Human hair follicles were obtained from human skin fragments (obtained by plastic surgery) and grown in supplemented William's E medium supplemented with penicillin/streptomycin, L-glutamine (2 mM/L), insulin (10 μg/mL and hydrocortisone (8 nM/L). Hair follicle growth was assessed via length measurements (days 0, 4, and 7). Triiodothyronine (T3, 30 μM/L) was used as positive control. The effect of steviol (at 0.625-5 μg/mL) was tested in parallel. On day 7, RNA was extracted from hair follicles that had been subjected to different treatments (control, T3, steviol). RNA was processed for Affymetrix® DNA microarray analysis in order to identify effects of compounds on gene expression. Where appropriate, RNA expression levels were further quantified by RT-PCR using the ABI 7900 Taqman instrumentation."}, "human hair follicle": {"tested_on": "human hair follicle", "assay": "mRNA level of marker genes in human hair follicle by RT-PCR", "type": "cell-based", "protocol": "as §1, with “The effect of steviol (at 0.625-5 μg/mL) was tested in parallel.” left out, “instrumentation. […] The mRNA level of some marker genes involved in growth and/or differentiation of cells in the skin and in hair follicle was further determined by RT-PCR and is shown in Table 4.” for “instrumentation.”"}}, "note": "Entries after “also recorded” stand apart in the source; their conditions may differ."}
{"smiles": "C=C1C[C@@]23CC[C@H]4[C@@](C)(CCC[C@@]4(C)C(=O)O)[C@@H]2CC[C@]1(O)C3", "note": "[Steviol, steviol]", "values": [{"measurement": "% of control (based on fold-change): CXC10", "setting": "whole mouse skin", "result": "132 ± 50 % of control"}, {"measurement": "% of control (based on fold-change): IL-6", "setting": "whole mouse skin", "result": "130 ± 31 % of control"}, {"measurement": "% of control (based on fold-change): MMP-8", "setting": "whole mouse skin", "result": "73 ± 23 % of control"}, {"measurement": "% of control (based on fold-change): MMP-13", "setting": "whole mouse skin", "result": "53 ± 9 % of control"}, {"measurement": "% of control (based on fold-change): PPAR-δ", "setting": "whole mouse skin", "result": "60 ± 37 % of control"}, {"measurement": "Ratio of steviol-treated/untreated: CASP8 and FADD-like apoptosis regulator", "setting": "Human hair follicles [1]; day 7, microarray", "result": 2.58}, {"measurement": "Ratio of steviol-treated/untreated: Chemokine (C-X-C motif) ligand 12 (stromal cell-derived factor 1)", "setting": "Human hair follicles [1]; day 7, microarray", "result": 2.22}, {"measurement": "Ratio of steviol-treated/untreated: Collagen, type IV, alpha 6", "setting": "Human hair follicles [1]; day 7, microarray", "result": 2.04}, {"measurement": "Ratio of steviol-treated/untreated: Fibroblast growth factor 7 (keratinocyte growth factor)", "setting": "Human hair follicles [1]; day 7, microarray", "result": 2.91}, {"measurement": "Ratio of steviol-treated/untreated: Insulin-like growth factor 1 receptor", "setting": "Human hair follicles [1]; day 7, microarray", "result": 2.00}, {"measurement": "Ratio of steviol-treated/untreated: Integrin, alpha 6", "setting": "Human hair follicles [1]; day 7, microarray", "result": 2.15}, {"measurement": "Ratio of steviol-treated/untreated: TIMP metallopeptidase inhibitor 3", "setting": "Human hair follicles [1]; day 7, microarray", "result": 2.32}, {"measurement": "Ratio of steviol-treated/untreated: Topoisomerase (DNA) II alpha 170 kDa", "setting": "Human hair follicles [1]; day 7, microarray", "result": 2.45}, {"measurement": "Ratio of steviol-treated/untreated: Transmembrane protein with EGF-like and two follistatin-like domains 2", "setting": "Human hair follicles [1]; day 7, microarray", "result": 3.10}, {"measurement": "biological pathways whose gene expression is modulated", "setting": "Human hair follicles [1]; microarray, Genedata pathway mapping", "result": "modulated gene expression of the pathways of epidermal development, ectoderm development and keratinocyte differentiation with a high statistical significance"}, {"measurement": "fur colour (greying; subjective rating score)", "setting": "aged C57B1/6J mice", "result": "significantly improved hair colour (i.e. reduced greying); also recorded: significantly improved fur colour"}, {"measurement": "hair loss (subjective rating score)", "setting": "aged C57B1/6J mice", "result": "significantly improved (i.e. reduced) hair loss"}, {"measurement": "hair loss (subjective rating score)", "setting": "aged C57B1/6J mice; listed as steviol", "result": "significant reduction of hair loss"}, {"measurement": "Growth (% of control)", "setting": "Human hair follicles [2]; 0.625 μg/mL", "result": "122 % of control"}, {"measurement": "Growth (% of control)", "setting": "Human hair follicles [2]; 1.25 μg/mL", "result": "121 % of control"}, {"measurement": "Growth (% of control)", "setting": "Human hair follicles [2]; 2.5 μg/mL", "result": "113 % of control"}, {"measurement": "Growth (% of control)", "setting": "Human hair follicles [2]; 5 μg/mL", "result": "117 % of control"}, {"measurement": "elongation of hair follicles", "setting": "Human hair follicles [2]; 0.625-5 μg/mL", "result": "dose-dependently favoured the elongation of hair follicles"}, {"measurement": "Fold changes (versus control): Integrin alpha-6", "setting": "human hair follicle; 0.625 μg/mL", "result": "1.62 ± 0.06", "unit": "fold"}, {"measurement": "Fold changes (versus control): COX-2", "setting": "human hair follicle; 1.25 μg/mL", "result": "0.46 ± 0.17", "unit": "fold"}, {"measurement": "Fold changes (versus control): HO-1", "setting": "human hair follicle; 1.25 μg/mL", "result": "0.64 ± 0.08", "unit": "fold"}, {"measurement": "Fold changes (versus control): Involucrin", "setting": "human hair follicle; 1.25 μg/mL", "result": "0.51 ± 0.22", "unit": "fold"}, {"measurement": "Fold changes (versus control): Keratin 6", "setting": "human hair follicle; 10 μg/mL", "result": "1.33 ± 0.11", "unit": "fold"}]}
